Measurements from ChEMBL document CHEMBL3301562, “MMV Box screening against Plasmodium falciparum protein kinases and aminoacyl tRNA synthetases”.

Key:
Format in all cases: functional
[1] = target: T1, Cdk-related protein kinase 6 (Plasmodium falciparum, UniProt O77239); assay: Final concentrations were 1.5 uM ATP, 5 mM MnCl2, and 15 ug/ml PK6 in a buffer of 100 mM Tris-HCl (pH 7.5). 50 ug/mL MBP was provided as the substrate; 10 uM staurosporine was used as a control inhibitor. Incubation time was 3 hours and 40 minutes.The catalytic activity of each kinase was considered proportional to ATP consumed, as determined from measurements of residual [ATP] with the luciferase-based reagent Kinase-Glo (Promega) following incubation. Luminescence (proportional to residual [ATP]) was measured on the plate readers FLx800 (BioTek Instruments, Winooski, VT, USA) and MicroBeta2.
T1 sequence (O77239 whole entry): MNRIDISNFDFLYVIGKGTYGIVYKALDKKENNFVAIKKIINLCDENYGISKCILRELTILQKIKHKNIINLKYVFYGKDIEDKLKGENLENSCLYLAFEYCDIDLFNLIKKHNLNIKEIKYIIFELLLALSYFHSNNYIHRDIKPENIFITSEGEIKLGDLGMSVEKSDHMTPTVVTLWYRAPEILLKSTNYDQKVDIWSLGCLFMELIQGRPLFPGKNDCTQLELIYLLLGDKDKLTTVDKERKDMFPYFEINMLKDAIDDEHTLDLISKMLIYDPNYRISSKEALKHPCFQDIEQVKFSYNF

[2] = target: T2, Putative uncharacterized protein pk7 (Plasmodium falciparum, UniProt O96214); assay: Final concentrations were 1 uM ATP, 2 mM DTT, 20 mM MgCl2, 2 mM MnCl2, 0.01% BSA, and 6 ug/ml PK7, in a buffer of 20 mM Tris-HCl (pH 7.5). The enzyme itself was the only substrate present (since autophosphorylation occurs); 100 uM 1NA-PP1 was used as a control inhibitor. Incubation time was 3 hours.
T2 sequence (O96214 whole entry): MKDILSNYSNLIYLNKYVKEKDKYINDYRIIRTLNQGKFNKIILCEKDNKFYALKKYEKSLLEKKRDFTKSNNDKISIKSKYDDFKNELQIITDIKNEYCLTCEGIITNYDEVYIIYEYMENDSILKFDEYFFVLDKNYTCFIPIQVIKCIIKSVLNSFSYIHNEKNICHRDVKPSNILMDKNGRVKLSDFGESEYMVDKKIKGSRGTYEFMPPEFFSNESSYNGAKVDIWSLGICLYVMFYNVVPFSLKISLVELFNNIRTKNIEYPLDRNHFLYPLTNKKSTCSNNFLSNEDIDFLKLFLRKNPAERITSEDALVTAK

[3] = target: T3, Mitogen-activated protein kinase (Plasmodium falciparum, UniProt Q25917); assay: Final concentrations were 1 uM ATP, 0.5 mM DTT, 1 mM MgCl2, 0.5 mg/mL BSA, and 10 ug/ml MAP2 in a buffer of 50 mM HEPES (pH 7.0). 0.5 mg/mL histone III-S served as the substrate (13); 100 uM AMP-PNP, an ATP analog, was used as a control inhibitor. Incubation time was 4 hours.
T3 sequence (Q25917 whole entry): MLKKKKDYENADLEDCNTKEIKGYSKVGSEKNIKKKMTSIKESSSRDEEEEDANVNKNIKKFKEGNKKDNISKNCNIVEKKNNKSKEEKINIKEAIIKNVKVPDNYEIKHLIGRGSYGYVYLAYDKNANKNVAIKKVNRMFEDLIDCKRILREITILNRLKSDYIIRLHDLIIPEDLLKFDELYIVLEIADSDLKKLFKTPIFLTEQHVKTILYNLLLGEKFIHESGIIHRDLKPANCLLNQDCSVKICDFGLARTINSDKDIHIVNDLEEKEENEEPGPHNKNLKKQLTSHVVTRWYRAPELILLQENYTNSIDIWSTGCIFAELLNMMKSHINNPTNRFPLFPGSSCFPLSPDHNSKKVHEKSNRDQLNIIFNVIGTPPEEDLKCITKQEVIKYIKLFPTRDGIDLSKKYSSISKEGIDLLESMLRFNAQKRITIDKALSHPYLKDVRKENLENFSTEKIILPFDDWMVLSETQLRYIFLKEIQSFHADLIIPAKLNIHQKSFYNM

[4] = target: Calcium-dependent protein kinase 1 (Plasmodium falciparum, UniProt P62344); assay: MMV: CDPK1 Protein kinase inhibition assay using recombinant PfCDPK1, syntide 2 peptide substrate, ATP and KinaseGlo to measure % inhibition at 1 uM MMV box compound.
Calcium-dependent protein kinase 1, sequence (P62344 whole entry): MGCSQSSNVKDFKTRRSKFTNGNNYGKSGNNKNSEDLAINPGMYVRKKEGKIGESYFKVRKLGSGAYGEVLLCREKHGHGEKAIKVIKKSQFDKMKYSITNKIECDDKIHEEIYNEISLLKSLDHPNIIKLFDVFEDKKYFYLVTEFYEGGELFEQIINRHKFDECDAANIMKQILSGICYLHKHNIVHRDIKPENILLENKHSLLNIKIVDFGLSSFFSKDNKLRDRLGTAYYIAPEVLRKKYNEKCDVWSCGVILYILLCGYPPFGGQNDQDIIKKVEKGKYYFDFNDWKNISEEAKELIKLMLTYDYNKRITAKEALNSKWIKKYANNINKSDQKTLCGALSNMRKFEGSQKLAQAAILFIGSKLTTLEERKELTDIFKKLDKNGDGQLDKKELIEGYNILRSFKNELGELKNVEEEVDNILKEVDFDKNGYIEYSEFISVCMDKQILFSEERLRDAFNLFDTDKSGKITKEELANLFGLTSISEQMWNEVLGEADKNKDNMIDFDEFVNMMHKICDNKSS

[5] = target: T4, Calcium-dependent protein kinase 4 (Plasmodium falciparum (isolate 3D7), UniProt Q8IBS5); assay: MMV: CDPK4 Protein kinase inhibition assay using recombinant PfCDPK4, syntide2 peptide substrate, ATP and KinaseGlo to measure % inhibition at 1 uM MMV box compound.
T4 sequence (Q8IBS5 whole entry): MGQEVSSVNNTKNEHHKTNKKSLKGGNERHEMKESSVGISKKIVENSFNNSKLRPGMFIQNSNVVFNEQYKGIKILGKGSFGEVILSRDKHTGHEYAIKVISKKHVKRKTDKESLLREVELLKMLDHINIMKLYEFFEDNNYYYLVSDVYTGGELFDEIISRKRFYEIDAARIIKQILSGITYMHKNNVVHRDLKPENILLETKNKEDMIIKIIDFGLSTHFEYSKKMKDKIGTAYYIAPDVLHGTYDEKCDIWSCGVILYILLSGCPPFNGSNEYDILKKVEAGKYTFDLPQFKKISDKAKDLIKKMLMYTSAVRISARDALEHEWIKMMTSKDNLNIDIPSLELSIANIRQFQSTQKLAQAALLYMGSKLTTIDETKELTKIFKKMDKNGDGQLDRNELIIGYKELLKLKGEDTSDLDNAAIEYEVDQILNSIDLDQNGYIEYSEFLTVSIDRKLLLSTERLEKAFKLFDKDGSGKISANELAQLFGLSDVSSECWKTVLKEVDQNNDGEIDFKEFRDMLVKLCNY

Proline--tRNA ligase = target: T5, Proline--tRNA ligase (Plasmodium falciparum (isolate 3D7), UniProt Q8I5R7); assay: MMV: ProRS recombinant Plasmodium falciparum Prolyl-tRNA-synthetase, assay with yeast tRNA, ATP, and proline and 3 uM MMV malaria box compound, assay read out with kinase glo as % inhibition.
T5 sequence (Q8I5R7 whole entry): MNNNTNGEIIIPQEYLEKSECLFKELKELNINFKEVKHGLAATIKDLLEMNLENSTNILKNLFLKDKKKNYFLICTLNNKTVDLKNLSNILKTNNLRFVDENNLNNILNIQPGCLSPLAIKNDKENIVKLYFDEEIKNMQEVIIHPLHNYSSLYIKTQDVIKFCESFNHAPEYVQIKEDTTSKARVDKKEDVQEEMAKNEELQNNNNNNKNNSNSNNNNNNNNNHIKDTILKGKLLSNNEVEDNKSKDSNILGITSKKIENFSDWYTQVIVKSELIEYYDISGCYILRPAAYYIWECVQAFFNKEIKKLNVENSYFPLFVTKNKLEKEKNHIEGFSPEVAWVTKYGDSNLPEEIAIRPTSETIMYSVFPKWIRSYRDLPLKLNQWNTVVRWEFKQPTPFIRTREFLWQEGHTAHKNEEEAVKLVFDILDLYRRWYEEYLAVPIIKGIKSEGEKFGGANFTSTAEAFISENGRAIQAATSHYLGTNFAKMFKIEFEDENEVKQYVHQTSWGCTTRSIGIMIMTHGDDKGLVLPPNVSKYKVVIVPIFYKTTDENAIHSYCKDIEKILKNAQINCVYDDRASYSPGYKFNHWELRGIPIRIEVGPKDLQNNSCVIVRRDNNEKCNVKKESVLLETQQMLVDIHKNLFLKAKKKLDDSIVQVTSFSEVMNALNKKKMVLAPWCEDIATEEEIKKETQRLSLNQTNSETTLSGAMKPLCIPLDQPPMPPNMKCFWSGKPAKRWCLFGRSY

Lysine--tRNA ligase = Lysine--tRNA ligase (Plasmodium falciparum (isolate 3D7), UniProt Q8IDJ8); assay: MMV: KRS recombinant Plasmodium falciparum Lysyl-tRNA-synthetase, assay with yeast tRNA, ATP, and lysine and 3 uM MMV malaria box compound, assay read out with kinase glo as % inhibition.
Lysine--tRNA ligase, sequence (Q8IDJ8 whole entry): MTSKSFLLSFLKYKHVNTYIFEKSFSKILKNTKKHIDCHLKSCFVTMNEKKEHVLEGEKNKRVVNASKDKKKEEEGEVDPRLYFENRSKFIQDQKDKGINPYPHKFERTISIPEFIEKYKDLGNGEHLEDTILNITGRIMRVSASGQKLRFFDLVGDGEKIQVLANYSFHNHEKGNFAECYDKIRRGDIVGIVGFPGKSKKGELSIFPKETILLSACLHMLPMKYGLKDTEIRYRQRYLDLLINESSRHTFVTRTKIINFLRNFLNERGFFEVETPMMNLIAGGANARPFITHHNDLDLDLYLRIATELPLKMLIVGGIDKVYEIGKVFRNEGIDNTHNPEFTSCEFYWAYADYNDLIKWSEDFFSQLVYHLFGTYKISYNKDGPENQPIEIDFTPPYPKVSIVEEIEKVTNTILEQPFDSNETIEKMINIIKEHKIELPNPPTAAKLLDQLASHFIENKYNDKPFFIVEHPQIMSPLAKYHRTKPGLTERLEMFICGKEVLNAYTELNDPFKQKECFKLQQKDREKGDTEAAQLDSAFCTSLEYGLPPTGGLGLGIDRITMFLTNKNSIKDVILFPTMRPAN

Compound | IC50 [1] [µM] | IC50 [2] [µM] | IC50 [3] [µM] | IC50 [4] [µM] | IC50 [5] [µM] | IC50 (Proline--tRNA ligase) [µM] | IC50 (Lysine--tRNA ligase) [µM]
CC(=O)c1ccc(NC(=O)CSc2nc(-c3ccccc3Cl)ns2)cc1 | > 1 | > 1 | > 1 | > 1 | > 1 | > 2.5 | > 2.5
Nc1ccc(-c2nc3cc(Cc4ccc5[nH]c(-c6ccc(N)cc6)nc5c4)ccc3[nH]2)cc1 | > 1 | > 1 | > 1 | > 1 | > 1 | > 2.5 | > 2.5
Oc1ccc2ccccc2c1CNc1nc2ccccc2[nH]1 | > 1 | > 1 | > 1 | > 1 | > 1 | > 2.5 | > 2.5
CN1CCN(c2ccc(Nc3c4ccccc4nc4ccccc34)cc2)CC1 | > 1 | > 1 | > 1 | > 1 | > 1 | > 2.5 | > 2.5
Cc1ccc(C)c(-c2csc(Nc3ccc(C)c(C)c3)n2)c1 | > 1 | > 1 | > 1 | > 1 | > 1 | > 2.5 | > 2.5
O=c1nc(C=Cc2ccc(Br)cc2)oc2ccccc12 | > 1 | > 1 | > 1 | > 1 | 0.7 | > 2.5 | > 2.5
CCOc1ccc(C2N(C)c3ccccc3N2C)cc1 | > 1 | > 1 | > 1 | > 1 | > 1 | > 2.5 | > 2.5
CCOC(=O)C1CCN(C(=O)CN2C(=O)c3ccccc3C2c2c[nH]c3ccccc23)CC1 (configuration not stated) | > 1 | > 1 | > 1 | > 1 | > 1 | > 2.5 | > 2.5
O=C1c2ccc3c4c(ccc(c24)C(=O)N1CCCCO)C(=O)N(CCCCO)C3=O | > 1 | > 1 | > 1 | > 1 | > 1 | > 2.5 | > 2.5
O=C(Nc1cccc(C2=NCCN2)c1)Nc1cccc(C2=NCCN2)c1 [IMIDOCARB] | > 1 | > 1 | > 1 | > 1 | > 1 | > 2.5 | > 2.5
CCOC(=O)c1cnc2ccc(CC)cc2c1O | > 1 | > 1 | > 1 | > 1 | > 1 | > 2.5 | > 2.5
CCCCNc1nc(NC(C)(C)C)nc(NC(C)(C)C)n1 | > 1 | > 1 | > 1 | > 1 | > 1 | > 2.5 | > 2.5
COc1ccc(-c2nc(NC(=O)CS(=O)(=O)c3ccc(F)cc3)sc2C)cc1 | > 1 | > 1 | > 1 | > 1 | > 1 | > 2.5 | > 2.5
O=C(NCc1ccco1)C1CCN(S(=O)(=O)c2ccc(Cl)cc2)CC1 | > 1 | > 1 | > 1 | > 1 | > 1 | > 2.5 | > 2.5
CCCCCCc1cc(O)c2c3c(c(=O)oc2c1)CCC(C)C3 (configuration not stated) | > 1 | > 1 | > 1 | > 1 | > 1 | > 2.5 | > 2.5
CCOC(=O)c1cn(CC)c2cc(N3CCCCC3)c(F)cc2c1=O | > 1 | > 1 | > 1 | > 1 | > 1 | > 2.5 | > 2.5
CCN(CC)CCCNc1nc(-c2ccc(Cl)cc2)nc2ccccc12 | > 1 | > 1 | > 1 | > 1 | > 1 | > 2.5 | > 2.5
Cc1ccc(-c2cc3c(nn2)-c2ccccc2C3=O)cc1 | > 1 | > 1 | > 1 | > 1 | > 1 | > 2.5 | > 2.5
COc1ccc(CCNC(=O)c2cc(S(=O)(=O)N3CC(C)CC(C)C3)ccc2Sc2ccc(F)cc2)cc1OC (configuration not stated) | > 1 | > 1 | > 1 | > 1 | > 1 | > 2.5 | > 2.5
COc1ccccc1CNC(=O)CCn1c(=O)[nH]c2ccsc2c1=O | > 1 | > 1 | > 1 | > 1 | > 1 | > 2.5 | > 2.5
Cc1ccc(S(=O)(=O)c2c(COC(=O)c3cccc(C)c3)c(-c3ccccc3)nn2C)cc1 | > 1 | > 1 | > 1 | > 1 | > 1 | > 2.5 | > 2.5
